Assay results reported in patent US6583147B1, “Pyrazolopyrimidinone derivatives for the treatment of impotence” (Dong A Pharm Co., Ltd., priority 1998, dated 2003).
Converted amounts (≈) assume the structure as drawn. Where two headings read alike, the source gives them in different places.

Assays:
[1] = system: rats; assay: Penile erection test using rats; format: in vivo, rat; details: oral single dose 10 mg/kg in 0.5% methyl cellulose, observed for 2 hours
[2] = Solubility in buffer solution in pH=2&5; format: physicochemical; details: for solubility at 30 min: 20 °C, thermodynamic from solid
Procedure: According to that defined in the Korea Pharmacopoeia, citrate-HCl buffer (pH 2) and citrate-NaOH buffer (pH 5) solutions were added to the powdered compounds of formula 1, respectively. After subsequent severe shaking for 30 sec every 5 min in […] for 30 min, the level of compounds in the filtrate was measured by high performance liquid chromatography.

[3] = target: T1, Phosphodiesterase-3 enzyme (PDE 3) (Oryctolagus cuniculus, UniProt G1ST54); assay: Test for phosphodiesterase-3 (PDE 3) activity; format: biochemical; details: PDE 3 fraction from platelets of a rabbit
T1 construct: The supernatant was separated by DEAE-cellulose column chromatography (Whatman DE52 bead); from tissue; host or cells: rabbit platelets
T1 sequence (G1ST54 1-1128): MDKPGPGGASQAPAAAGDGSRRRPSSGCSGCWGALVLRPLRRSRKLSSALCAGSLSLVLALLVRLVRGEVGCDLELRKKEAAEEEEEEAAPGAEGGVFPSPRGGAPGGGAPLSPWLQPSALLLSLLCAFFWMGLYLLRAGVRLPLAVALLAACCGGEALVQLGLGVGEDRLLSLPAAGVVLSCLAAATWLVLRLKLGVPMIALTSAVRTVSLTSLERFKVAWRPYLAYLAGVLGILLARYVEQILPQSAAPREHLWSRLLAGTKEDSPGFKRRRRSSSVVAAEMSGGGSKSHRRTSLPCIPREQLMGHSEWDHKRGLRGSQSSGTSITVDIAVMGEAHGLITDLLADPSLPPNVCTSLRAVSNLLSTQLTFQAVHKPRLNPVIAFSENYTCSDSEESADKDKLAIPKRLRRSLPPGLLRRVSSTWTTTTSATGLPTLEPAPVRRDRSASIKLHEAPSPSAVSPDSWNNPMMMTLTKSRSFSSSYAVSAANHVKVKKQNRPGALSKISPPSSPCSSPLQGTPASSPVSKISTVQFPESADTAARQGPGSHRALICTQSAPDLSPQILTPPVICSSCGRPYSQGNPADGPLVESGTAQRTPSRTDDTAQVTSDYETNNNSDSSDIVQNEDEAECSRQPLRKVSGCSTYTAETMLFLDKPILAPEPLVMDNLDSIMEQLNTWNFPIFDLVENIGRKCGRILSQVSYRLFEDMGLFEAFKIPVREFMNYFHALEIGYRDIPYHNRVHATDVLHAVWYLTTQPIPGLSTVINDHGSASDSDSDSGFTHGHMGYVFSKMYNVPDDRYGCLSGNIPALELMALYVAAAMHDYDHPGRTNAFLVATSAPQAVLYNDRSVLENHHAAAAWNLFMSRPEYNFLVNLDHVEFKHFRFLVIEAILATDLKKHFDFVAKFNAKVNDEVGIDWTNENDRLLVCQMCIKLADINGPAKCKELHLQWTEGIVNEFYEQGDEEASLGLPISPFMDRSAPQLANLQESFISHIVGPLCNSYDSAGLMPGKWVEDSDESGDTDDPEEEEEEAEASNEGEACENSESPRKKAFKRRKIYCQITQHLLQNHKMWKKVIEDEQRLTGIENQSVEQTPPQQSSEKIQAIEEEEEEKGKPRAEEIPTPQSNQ
How it was run: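 PDE3 taken from rabbit platelets as a DEAE-cellulose fraction, incubated with inhibitor and [3H]-cAMP or [3H]-cGMP (500 nM) for about 1 h at 30° C, pH 7.4. Product converted by snake venom or 5′-nucleotidase, unreacted substrate removed on anion-exchange resin, supernatant radioactivity counted by β-counter.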

[4] = target: T2, Phosphodiesterase-5 enzyme (PDE 5) (Homo sapiens, UniProt O76074); assay: Test for phosphodiesterase-5 (PDE 5) activity; format: biochemical; details: PDE 5 fraction from human corpus cavernosal tissues
T2 construct: separated by HPLC (Mono Q anion exchange column) with concentration gradient of 0-500 mM NaCl to elute PDE isozymes; from tissue; host or cells: human corpus cavernosal tissue

[5] = Acute oral toxicity test in rats; details: SD, rat, in vivo
[6] = Metabolism in rat liver (9,000xg supernatant fraction with NADPH); format: in vitro ADME; details: 10 ug/ml, 37° C., 1 hr, rat liver 9,000xg supernatant with NADPH generating solution
Procedure: In order to evaluate the extent of metabolism of the compounds of formula 1, the metabolism in rat liver was studied as below similar to the reported method (C. L. Litterist, E. G. Mimnaugh, R. I. Reagan and T. G. Gram., Drug. Metabol. Disposit., 1975, 3, 259-265). In short, the disappearance of compounds after incubation in 9, 000×g supernatant fraction of rat liver homogenate in the presence of NADPH (reduced nicotinamide adenine dinucleotide phosphate) was evaluated.
First, Sprague-Dawley rat (Korea Experiment Animals, SPF) liver was isolated after perfusion through portal vein with 0.1 M phosphate buffer of pH 7.0 using tissue homogenizer at 4° C. After centrifugation at 9,000×g for 20 min, the supernatants were collected.
The compound stock solution was spiked (10 ug/ml) into each of the eppendorf tubes containing 1 ml of the mixed solution composing 1 volume of supernatants and 2 volumes of generating solution. The generating solution contains 1 mM NADP, 10 mM glucose-6-phosphate, 50 mM nicotinamide and 5 MM MgCl2 in 0.1 M phosphate buffer of pH 7.0. After vortex-mixing, each test tube was incubated in a water bath kept at 37° C. After 1 hr, was added acetonitrile to the reaction mixture and centrifuged. 100 ul of aliquot of the supernatant was sampled from each test tube for measuring the remnants by high performance liquid chromatography.

[7] = system: men with erectile dysfunction of organic cause; details: oral administration; cited from earlier work
[8] = target: Phosphodiesterase-6 enzyme (PDE 6) (Aquarana catesbeiana, UniProt Z9LGG0MB32+Z9OH76POJ0); assay: Test for phosphodiesterase-6 (PDE 6) activity; format: biochemical, bullfrog; details: PDE 6 fraction from retina of bullfrogs, trypsin-activated
[9] = citrate-HCl buffer, pH 2, aqueous buffer, citrate-HCl buffer (pH 2), read-out: solubility pH 2
[10] = citrate-NaOH buffer, pH 5, aqueous buffer, citrate-NaOH buffer (pH 5), read-out: solubility pH 5

Row | IC50 [8] [µg/mL] | SMILES | PEI (penile erection index) [1] | genital grooming (number of genital groomings) [1] | solubility pH 2 ([2]; citrate-HCl buffer (pH 2)) [ug/ml] | solubility at 30 min [2, 9] [µg/mL] | IC50 [3] [µM] | IC50 [4] [µM] | LD50 ([5]; po) [mg/kg] | remnants (%) [6] [%] | solubility at 30 min [2, 10] [µg/mL] | LD50 ([5]; 1 g/kg, rats, oral single dose, read-out: lethal dose (LD50) of oral administration) [mg/kg] | response rate [7]
1 |  | CCCOc1ccc(S(=O)(=O)NCCC2CCCN2C)cc1-c1nc2c(CCC)nn(C)c2c(=O)[nH]1 (stereo not shown) [Example 68, 5-[2-propyloxy-5-(1-methyl-2-pyrrolidinylethylamidosulfonyl)phenyl]-1-methyl-3-propyl-1,6-dihydro-7H-pyrazolo(4,3-d)pyrimidin-7-one] | 233.3 ± 152.8 | 3.0 ± 2.0 | 5356 | 3720 to 5360 (≈ 7200 to 10400 µM) | 70.1 | 0.00885 | > 1000 | 93.0 |  |  | 
2 |  | CCOc1ccc(S(=O)(=O)NCCC2CCCN2C)cc1-c1nc2c(CC(C)C)nn(C)c2c(=O)[nH]1 (stereo not shown) [Example 70, 5-[2-ethoxy-5-(1-methyl-2-pyrrolidinylethylamidosulfonyl)phenyl]-1-methyl-3-isobutyl-1,6-dihydro-7H-pyrazolo(4,3-d)pyrimidin-7-one] | 175.0 ± 50.0 | 1.8 ± 0.5 |  | 795 (≈ 1540 µM) | 61.5 | 0.0203 |  | 94.1 | 708 (≈ 1370 µM) | > 1000 | 
3 | 0.0767 ± 0.00153 (≈ 0.162 µM) | CCCc1nn(C)c2c(=O)[nH]c(-c3cc(S(=O)(=O)N4CCN(C)CC4)ccc3OCC)nc12 [sildenafil, reference compound] |  | 3.1 ± 1.2 |  | 1580 (≈ 3340 µM) | 71.4 |  |  |  | 480 (≈ 1010 µM) |  | around 80%
